Source: the supplement of paper PMC10307832

Key:
Assay in all cases: relative viability (nuclei count vs DMSO), 5 days (fraction); higher = more cells survive
Ispinesib + Tozasertib = compound: Cc1ccc(C(=O)N(CCCN)[C@@H](c2nc3cc(Cl)ccc3c(=O)n2Cc2ccccc2)C(C)C)cc1 [Ispinesib] + Cc1cc(Nc2cc(N3CCN(C)CC3)nc(Sc3ccc(NC(=O)C4CC4)cc3)n2)n[nH]1 [Tozasertib] (partner 0.1 µM)
Outline: (§1)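 Five library-drug doses in √10 steps were combined with a fixed anchor-drug dose, or a single drug was given alone, by pin tool to lung cancer cell lines in 1536-well plates the day after seeding. Nuclei were stained and counted after 5 days. Relative viability is the nuclei count in treated wells over that in vehicle wells, taken as the median of duplicate plates.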

Linsitinib + Palbociclib = compound: C[C@]1(O)C[C@@H](c2nc(-c3ccc4ccc(-c5ccccc5)nc4c3)c3c(N)nccn32)C1 [Linsitinib] + CC(=O)c1c(C)c2cnc(Nc3ccc(N4CCNCC4)cn3)nc2n(C2CCCC2)c1=O [Palbociclib] (partner 0.5 µM)
Outline: as §1

Ispinesib + Navitoclax = compound: Cc1ccc(C(=O)N(CCCN)[C@@H](c2nc3cc(Cl)ccc3c(=O)n2Cc2ccccc2)C(C)C)cc1 [Ispinesib] + CC1(C)CCC(c2ccc(Cl)cc2)=C(CN2CCN(c3ccc(C(=O)NS(=O)(=O)c4ccc(N[C@H](CCN5CCOCC5)CSc5ccccc5)c(S(=O)(=O)C(F)(F)F)c4)cc3)CC2)C1 [Navitoclax] (partner 0.5 µM)
Outline: as §1

Row | Cell Line | relative viability (Ispinesib + Tozasertib; first compound 0.001 µM) | relative viability (Ispinesib + Tozasertib; first compound 0.003162 µM) | relative viability (Ispinesib + Tozasertib; first compound 0.01 µM) | relative viability (Ispinesib + Tozasertib; first compound 0.03162 µM) | relative viability (Ispinesib + Tozasertib; first compound 0.1 µM) | relative viability (Linsitinib + Palbociclib; first compound 0.01 µM) | relative viability (Linsitinib + Palbociclib; first compound 0.03162 µM) | relative viability (Linsitinib + Palbociclib; first compound 0.1 µM) | relative viability (Linsitinib + Palbociclib; first compound 0.3162 µM) | relative viability (Linsitinib + Palbociclib; first compound 1 µM) | relative viability (Ispinesib + Navitoclax; first compound 0.001 µM) | relative viability (Ispinesib + Navitoclax; first compound 0.003162 µM) | relative viability (Ispinesib + Navitoclax; first compound 0.01 µM) | relative viability (Ispinesib + Navitoclax; first compound 0.03162 µM) | relative viability (Ispinesib + Navitoclax; first compound 0.1 µM)
1 | NCI-H522 | 0.562 | 0.508 | 0.542 | 0.557 | 0.702 | 1.01 | 0.83 | 1.04 | 0.673 | 0.977 | – | – | – | – | –
2 | PC-3 [JPC-3] | 0.899 | 0.902 | 0.961 | 1.01 | 0.59 | 0.548 | 0.544 | 0.558 | 0.471 | 0.493 | 0.826 | 0.875 | 0.782 | 0.797 | 0.784
3 | NCI-H1703 | – | – | – | – | – | – | – | – | – | – | 1.2 | 0.727 | 0.117 | 0.0871 | 0.114
4 | EPLC-272H | 0.211 | 0.448 | 0.24 | 0.114 | 0.25 | 0.337 | 0.351 | 0.327 | – | 0.335 | 1.24 | 1.21 | 1.25 | 0.784 | 1.02
5 | NCI-H1792 | – | – | – | – | – | – | 0.712 | 0.527 | 0.599 | 0.375 | 0.827 | 0.825 | 0.594 | 0.299 | 0.516
6 | NCI-H2085 | 0.881 | 0.855 | 1 | 0.76 | 0.651 | 0.434 | 0.465 | 0.493 | 0.445 | 0.478 | 1.12 | 1.17 | 1.19 | 1.13 | 0.672
7 | LK-2 | 0.159 | 0.175 | 0.183 | 0.158 | 0.158 | 0.968 | 0.58 | 0.615 | 0.371 | 0.554 | 0.93 | 0.808 | 1.01 | 0.661 | 0.298
8 | NCI-H1395 | 0.778 | 0.874 | 0.808 | 0.58 | 0.404 | 0.653 | – | 0.713 | 0.641 | 0.654 | 1.32 | 1.1 | 1.16 | 0.553 | 0.326
9 | ABC-1 | 0.197 | 0.174 | 0.21 | 0.182 | 0.184 | 0.793 | 0.537 | 0.627 | 0.428 | 0.425 | – | – | – | – | –
10 | RERF-LC-KJ | 0.593 | 0.412 | 0.329 | 0.262 | 0.354 | 0.909 | 0.795 | 1.05 | 0.464 | 1.1 | 1.17 | 0.997 | 1.01 | 0.74 | 0.369
11 | LU99A | 0.261 | 0.282 | 0.29 | 0.262 | 0.273 | 0.392 | 0.432 | 0.434 | – | 0.36 | 0.857 | 0.757 | 1.02 | 0.627 | 0.141
12 | NCI-H650 | 0.738 | 0.712 | 0.77 | 0.742 | 0.426 | 0.348 | 0.364 | 0.339 | – | 0.291 | – | – | – | – | –
13 | NCI-H2347 | 0.529 | 0.545 | 0.65 | 0.55 | 0.52 | 0.372 | 0.498 | 0.468 | 0.34 | 0.399 | 0.819 | 0.727 | 0.967 | 0.762 | 0.609
14 | HARA | 0.151 | 0.115 | 0.332 | 0.0895 | 0.107 | 0.276 | 0.274 | 0.223 | 0.203 | 0.268 | 1.28 | 1.17 | 1.36 | 1.17 | 0.12
15 | NCI-H661 | 0.355 | 0.396 | 0.384 | 0.379 | 0.369 | 0.41 | 0.433 | 0.381 | 0.379 | 0.412 | – | – | – | – | –
16 | SW 900 | 0.502 | 0.595 | 0.606 | 0.409 | 0.293 | 0.506 | 0.544 | 0.534 | 0.476 | 0.505 | – | – | – | – | –
17 | NCI-H2342 | 0.492 | 0.502 | 0.544 | 0.554 | 0.43 | 0.677 | 0.524 | 0.521 | 0.531 | 0.54 | – | – | – | – | –
18 | EBC-1 | – | – | – | – | – | – | – | – | – | – | 0.349 | 0.43 | 0.246 | 0.189 | 0.223
19 | NCI-H1299 | – | – | – | – | – | – | – | – | – | – | 1.02 | 1.08 | 1.08 | 1.01 | 0.52
20 | NCI-H1623 | 0.404 | 0.719 | 0.473 | 0.394 | 0.324 | – | – | – | – | – | – | – | – | – | –
21 | LCLC-103H | 0.5 | 0.608 | 0.584 | 0.382 | 0.485 | 0.435 | 0.414 | 0.427 | 0.367 | 0.486 | – | – | – | – | –
22 | IA-LM | – | – | – | – | – | – | – | – | – | – | 0.969 | 0.751 | 0.44 | 0.0088 | 0.0187
23 | NCI-H596 | 0.956 | 0.86 | 0.916 | 0.945 | 0.432 | – | – | – | – | – | 0.865 | 0.9 | 1.07 | 1.05 | 0.458
24 | A549 | – | – | – | – | – | – | – | – | – | – | 1.34 | 1.16 | 1.18 | 0.0508 | 0.0539
25 | Calu-6 | – | – | – | – | – | – | – | – | – | – | 0.764 | 0.344 | 0.173 | 0.0922 | 0.12
26 | NCI-H358 | 0.1 | 0.101 | 0.0892 | 0.116 | 0.0906 | 0.144 | 0.14 | 0.121 | 0.113 | 0.107 | – | – | – | – | –
27 | NCI-H1648 | 0.532 | 0.484 | 0.394 | 0.498 | 0.44 | 0.238 | 0.304 | 0.252 | 0.279 | 0.212 | – | – | – | – | –
